Test results published in US6042841A, “Cosmetic method of treating skin” (Unilever Home & Personal Care USA Division of Conopco, Inc., priority 1998, dated 2000).

Columns and labels:
keratinocytes = experiment: Keratinocyte SDS viability assay (Neutral Red); assay type: cell-based; conditions: Keratinocyte; SDS 2 μg/ml, PA 0; 24 hours; n 8
Protocol: After incubating for 24 hours the medium was removed and the viability determined by the Neutral Red method.

ICAM = experiment: ICAM-1 assay, PMA-induced ICAM production in human skin fibroblasts; assay type: cell-based; conditions: PMA (10 nM)-treated; N 4
Protocol: Intracellular adhesion molecules (ICAM) and PEG2 production by human skin fibroblasts can be induced by the inflammatory stimulus PMA (phorbal myristate acetate). PMA represents an external stressor which induces oxidative stress and inflammatory responses in cells. This model is used to model inflammation in vivo.
Primary human foreskin fibroblasts at passage 2 (P2) were seeded into 96-well plates at 10000 cells/well and maintained for 24 hours in an atmosphere of 5% carbon dioxide in Dulbeccos Modified Eagles Medium (DMEM) supplemented with 10% foetal calf serum. […] Phorbal myristate acetate (PMA) (Sigma) was added to the media and the cells incubated for a further 24 hours. […] The fibroblasts/media were then analysed as described below immediately or snap frozen in liquid nitrogen and stored at -70° C. for future analysis. The cells were then counted and data from the dot-blot analysis subsequently standardised to cell number.
ICAM-1 assay: Media were discarded and cells washed with Dulbecco PBS. To the washed cells, 150 μl 0.1% Triton X-100 (Sigma) was added for 3 minutes to extract ICAM from cell membrane. The extracts were transferred to Eppendoff centrifuge tubes and centrifuged at 1000 g for 2 min to remove cell debris. A volume of 100 μl supernatant was used for ICAM assay. The soluble ICAM-1 was assessed with commercially available immunoenzymometric assay kit (R&D Systems). Concentrations of ICAM-1 in the samples were determined based on parallelly running standard curve.

decorin [1] = experiment: Dot blot assay for decorin synthesis in human dermal fibroblasts; assay type: cell-based; conditions: Homo sapiens, Fibroblast, 24 h; 1 μm (so in the source); p=0.035, n=4; comparative trial; read-out: Decorin synthesis relative to vehicle treated control value of 100
Protocol: Primary human foreskin fibroblasts at passage 2 (P2) were seeded into 12-well plates at 10000 cells/cm^2 and maintained for 24 hours in an atmosphere of 5% carbon dioxide and 4% oxygen in Dulbeccos Modified Eagles Medium (DMEM) supplemented with 10% foetal calf serum. After this time the cells were washed with serum free DMEM and then incubated in fresh serum free DMEM for a further 60 hours. The fibroblast monolayers were then washed again with serum free DMEM. Test reagents and vehicle controls were added to the cells in triplicate in a final volume of 0.4 ml/well fresh serum free DMEM and incubated for a further 24 hours. This fibroblast conditioned medium was either analysed immediately or snap frozen in liquid nitrogen and stored at -70° C. for future analysis. The cells were then counted and data from the dot-blot analysis subsequently standardised to cell number.
Samples of conditioned medium from dermal fibroblasts treated with vehicle (as a control) or test reagents were supplemented with 20 mM dithiothreitol (1:10 dilution of 200 mM stock solution) and 0.1% sodium dodecylsulphate (1:100 dilution of 10% stock solution), mixed well and then incubated at 75° C. for 2 minutes. A standard for the assay was generated by serial dilution of neat fibroblast conditioned medium from fibroblasts seeded at 10000 cells/cm^2 in a 175 cm^2 flask and maintained in serum free DMEM as described above. Assay samples were subsequently applied in triplicate to a prewetted sheet of Immobilon-P transfer membrane using the 96-well Bio-Dot Apparatus from Bio-Rad as described in the manufacturers guidelines. Approximately 200 μl of medium was applied per well. […] Dot intensity was assessed by computer-assisted image analysis using the quantification tools in ImageQuant™, standardised to cell number and the effects of various test reagents on decorin and procollagen-I synthesis were determined relative to a vehicle treated control value of 100 arbitrary units.

procollagen-I = experiment: Immunohistochemical analysis of procollagen-I expression in photodamaged skin biopsies after topical retinoic acid; assay type: in vivo, human (women); conditions: for No. of Participants showing marked increase in expression of procollagen-I: 0.05% retinoic acid topical
From the text: (§1) Two groups of women were recruited with identical or nearly identical degrees of mild to moderate photodamage on each outer forearm. They were supplied with 0.05% retinoic acid in a moisturising base (Retinova®) and also with a colour matched moisturising cream with similar sensory characteristics (Dermacare® lotion), but no active ingredients, as a placebo control. Each participant of the two groups applied the Retinova® to one outer forearm and placebo (Dermacare®) to the other outer forearm. Group 1 applied the products daily to their outer forearms for 14 weeks and the Group 2 applied the products to their outer forearms for 28 weeks. At the end of the studies two full thickness 4 mm punch biopsies were taken from the treated areas of each forearm. Immunohistochemical analysis of the biopsy tissue taken from the participants was performed to identify the effect of retinoic acid treatment on the expression of the skin extracellular matrix components, decorin and procollagen-I, as compared with the placebo treated forearms. The following procedure was followed:
(§2) Antibody dilution buffer for wax sections was composed of Tris Buffered Saline (TBS), 3% bovine serum albumin (BSA), 0.05% Triton X-100 and 0.05% sodium azide. Primary antibodies for procollagen-I (amino terminal) were obtained from Chemicon International Inc. (cat# MAB 1912, rat IgGl) and used on wax sections at a dilution of 1:800, overnight at 4° C. after the section had been pre-treated with trypsin (0.5 mg/ml, 25 minutes, 37° C.). Primary antibodies for decorin were obtained from Biogenesis (rabbit polyclonal) and used on wax sections at a dilution of 1:800, overnight at 4° C. Anti-rat biotinylated secondary antibodies, obtained from DAKO (cat# E0468, rabbit polyclonal), were applied to wax sections at a dilution of 1:400. Anti-rabbit biotinylated secondary antibodies, obtained from Amersham (cat# RPN 1004, donkey polyclonal), were applied to wax sections at a dilution of 1:400. Streptavidin conjugated alkaline phosphatase, obtained from Zymed (cat# 43-4322), was used at a concentration of 1:2500. […]

decorin [2] = experiment: Immunohistochemical analysis of decorin expression in photodamaged skin biopsies after topical retinoic acid; assay type: in vivo, human (women); conditions: for No. of Participants showing marked increase in expression of decorin: 0.05% retinoic acid topical
From the text: as §1, §2

[3] = Group 1 after 14 weeks, total 16 participants, daily
[4] = Group 2 after 28 weeks, total 15 participants
[5] = topical application of Retinova, vs placebo

CCCCCCCCCCCCOS(=O)(=O)[O-].[Na+] [SDS, sodium dodecyl sulphate, reference compound]
viability at 2 µg/mL (keratinocytes): 55.8%

CCCCCCCCCCCCCC(=O)O[C@@H]1[C@@H](C)[C@@]2(O)[C@@H](C=C(CO)C[C@]3(O)C(=O)C(C)=C[C@@H]23)[C@@H]2C(C)(C)[C@]12OC(C)=O [PMA, phorbal myristate acetate, reference compound]
ICAM (ICAM): 14.42 ± 1.86 ng/mL

CC1=C(/C=C/C(C)=C/C=C/C(C)=C/C(=O)O)C(C)(C)CCC1 [Retinoic Acid, retinoic acid]
activity at 1 µM (decorin [1]): 138 ± 14% | No. of Participants showing marked increase in expression of procollagen-I (procollagen-I; [3]): 9 | No. of Participants showing marked increase in expression of procollagen-I (procollagen-I; [4]): 10 | procollagen-I expression in photodamaged skin (in words) (procollagen-I; [5]): marked upregulation | No. of Participants showing marked increase in expression of decorin (decorin [2]; [3]): 10 | No. of Participants showing marked increase in expression of decorin (decorin [2]; [4]): 15 | decorin expression in photodamaged skin (in words) (decorin [2]; [5]): marked upregulation
